The source of these data is PubChem BioAssay (NCI).

Test systems include A549 NSCLC; NCI-H226 lung; HT29 colon; T-47D breast; IGROV1 ovarian; CCRF-CEM leukemia; SF-539 CNS; SF-295 CNS; HL-60(TB) leukemia; TK-10 renal; SK-OV-3 ovarian; HCT-116 colon; HOP-92 NSCLC; EKVX NSCLC; COLO 205 colon; NCI-H460 lung; K-562 leukemia; HS 578T breast; M14 melanoma.
What all share (test): growth of human tumour cells (NCI), 48 h

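Values below derive from 48-hour exposures of cells grown in 96-well plates, with endpoints linearly interpolated between the two concentrations bracketing the appropriate inhibition level. GI50 = concentration required for 50% inhibition of growth. TGI denotes the concentration required for complete inhibition of growth.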

As for `COc1cc(C(=O)NC2CCc3cc(OC)c(OC)c(OC)c3-c3ccc(OC)c(=O)cc32)cc(OC)c1OC` (centres undefined), the TGI in the assay on A549 NSCLC is greater than 100 µM; with NCI-H226 lung, 3.31 µM; in the assay with HT29 colon it was 2.29 µM; with T-47D breast, greater than 100 µM; in the assay on IGROV1 ovarian, 71.6 µM; with CCRF-CEM leukemia, greater than 35 µM. Moreover, the TGI in the assay with SF-539 CNS is 0.0689 µM; with SF-295 CNS, 13 µM; with HL-60(TB) leukemia, 0.262 µM; in the assay on TK-10 renal it was greater than 91.6 µM; with SK-OV-3 ovarian, 20.9 µM; with HCT-116 colon it was 1.69 µM. Further, the TGI in the assay on HOP-92 NSCLC is 3.62 µM; in the assay on EKVX NSCLC, greater than 100 µM; in the assay with COLO 205 colon it was 0.23 µM; in the assay on NCI-H460 lung it was 15.3 µM; in the assay on K-562 leukemia, 22 µM; in the assay on HS 578T breast, greater than 21.1 µM. For the same compound, in the assay with M14 melanoma, the TGI worked out at 10.5 µM.
Turning to `CCOc1cc(C2CC(c3ccc(NS(=O)(=O)c4cc([N+](=O)[O-])ccc4C)cc3)=NN2S(=O)(=O)c2cc([N+](=O)[O-])ccc2C)ccc1O` (centres undefined), the TGI was greater than 100 µM in the assay with A549 NSCLC; greater than 100 µM in the assay with NCI-H226 lung; greater than 100 µM in the assay on HT29 colon; 65.1 µM in the assay with T-47D breast; greater than 100 µM with IGROV1 ovarian; greater than 100 µM in the assay on CCRF-CEM leukemia. In addition, the TGI in the assay on SF-539 CNS, in the assay with SF-295 CNS, with HL-60(TB) leukemia, in the assay on TK-10 renal, in the assay with SK-OV-3 ovarian and in the assay on HCT-116 colon was greater than 100 µM throughout. In addition, the TGI in the assay with HOP-92 NSCLC was 60.7 µM; in the assay on EKVX NSCLC, 82.2 µM; with COLO 205 colon it was greater than 100 µM; in the assay with K-562 leukemia, greater than 100 µM; with HS 578T breast, greater than 100 µM; with M14 melanoma it was greater than 100 µM.
As for `O=C(CSCC(=O)N/N=C/c1ccc2c(c1)OCO2)N/N=C/c1ccc2c(c1)OCO2`, the TGI in the assay with A549 NSCLC, with NCI-H226 lung, with HT29 colon, in the assay on T-47D breast, with IGROV1 ovarian and in the assay on CCRF-CEM leukemia was greater than 100 µM in each case. The TGI with SF-539 CNS, in the assay with SF-295 CNS, with HL-60(TB) leukemia, in the assay on TK-10 renal, with SK-OV-3 ovarian and with HCT-116 colon was greater than 100 µM each time. For the same compound, the TGI in the assay with HOP-92 NSCLC, in the assay on EKVX NSCLC, with NCI-H460 lung, with K-562 leukemia, with HS 578T breast and with M14 melanoma was greater than 100 µM throughout.
With `CC1=NN(c2cccc(Cl)c2)C2(SCC(=O)N2c2nc3ccccc3s2)C1=CC=Cc1ccccc1` (centres undefined), the TGI in the assay on NCI-H226 lung, in the assay on HT29 colon, in the assay on T-47D breast, in the assay with IGROV1 ovarian, with CCRF-CEM leukemia and in the assay on SF-539 CNS was greater than 100 µM each time. For the same compound, the TGI was greater than 100 µM in the assay on SF-295 CNS; 3.04 µM in the assay with HL-60(TB) leukemia; greater than 100 µM in the assay on TK-10 renal; 68.5 µM with SK-OV-3 ovarian; 73.7 µM with HCT-116 colon; 45.5 µM with HOP-92 NSCLC. Also, the TGI was greater than 100 µM in the assay with EKVX NSCLC; greater than 100 µM in the assay on NCI-H460 lung; greater than 100 µM in the assay on K-562 leukemia; 63.4 µM with HS 578T breast; greater than 100 µM in the assay on M14 melanoma.
On to `CCCCN1C(=O)C2Cc3c([nH]c4ccccc34)C(c3cccc(O)c3)N2C1=O` (centres undefined), for which the TGI worked out at 35 µM in the assay on A549 NSCLC; 42.3 µM with NCI-H226 lung; 35.7 µM with HT29 colon; 51.9 µM in the assay on T-47D breast; 31.3 µM in the assay on IGROV1 ovarian; 36.2 µM in the assay on CCRF-CEM leukemia. Moreover, the TGI with SF-539 CNS turned out to be 34.3 µM; in the assay on SF-295 CNS it was 31.9 µM; in the assay with HL-60(TB) leukemia, 46.2 µM; in the assay with TK-10 renal it was 33.6 µM; in the assay with SK-OV-3 ovarian, 30 µM; with HCT-116 colon it was 34.9 µM. Also, the TGI in the assay on HOP-92 NSCLC was found to be 33.8 µM; in the assay on EKVX NSCLC, 31.9 µM; with COLO 205 colon, 39.5 µM; in the assay with NCI-H460 lung it was 37.1 µM; in the assay with K-562 leukemia it was 47.5 µM; in the assay on HS 578T breast, 69.1 µM. Further, the TGI with M14 melanoma was 34.4 µM.
For `O=C(C=P(c1ccccc1)(c1ccccc1)c1ccccc1)c1ccc(-c2cccs2)cc1`, the TGI amounted to 11.6 µM with A549 NSCLC; 8.4 µM in the assay with NCI-H226 lung; 13.7 µM in the assay on HT29 colon; 9.61 µM with T-47D breast; 21.2 µM in the assay on IGROV1 ovarian; 22.1 µM with CCRF-CEM leukemia. Further, the TGI is 12.4 µM in the assay with SF-539 CNS; 17.4 µM in the assay with SF-295 CNS; 4.87 µM in the assay on HL-60(TB) leukemia; 11.3 µM in the assay with TK-10 renal; 20.6 µM in the assay on SK-OV-3 ovarian; 13.9 µM with HCT-116 colon. Moreover, the TGI in the assay with HOP-92 NSCLC worked out at 11.3 µM; with EKVX NSCLC, 7.09 µM; in the assay with COLO 205 colon it was 1.95 µM; in the assay on NCI-H460 lung it was 12.2 µM; in the assay on K-562 leukemia it was 15.9 µM; with HS 578T breast, 49.4 µM. For the same compound, the TGI in the assay on M14 melanoma turned out to be 7.75 µM.
For `COC1/C=C(C)/C=C/C(C)/C=C/C(=O)OC(/C(C)=C/C=C(\C)CNC(=O)[C@H](CO)NC=O)C(C)/C=C/C=C/C(OC)CC/C=C(C)/C=C/C1` (some centres undefined), the TGI is greater than 1 µM with A549 NSCLC; greater than 1 µM in the assay on HT29 colon; greater than 1 µM in the assay on T-47D breast; greater than 1 µM in the assay with IGROV1 ovarian; greater than 1 µM in the assay with CCRF-CEM leukemia; greater than 0.257 µM in the assay with SF-539 CNS. Also, the TGI in the assay with SF-295 CNS is 0.0534 µM; with HL-60(TB) leukemia, 0.0957 µM; in the assay with TK-10 renal, greater than 1 µM; in the assay on SK-OV-3 ovarian it was greater than 1 µM; in the assay on HCT-116 colon it was greater than 1 µM; in the assay with HOP-92 NSCLC, greater than 0.267 µM. Besides, the TGI with EKVX NSCLC was greater than 1 µM; in the assay on COLO 205 colon, greater than 1 µM; in the assay with NCI-H460 lung it was greater than 1 µM; with K-562 leukemia it was 0.0472 µM; in the assay on HS 578T breast it was greater than 1 µM; with M14 melanoma, 0.0356 µM. Moreover, the GI50 in the assay on COLO 205 colon is 0.0331 µM.
